Experiments:
[1] = tested on: hTR in the context of the native telomerase enzyme; test: RNase H cleavage of hTR directed by antisense DNA oligonucleotides in native telomerase; type: biochemical, human; settings: for RNaseH Digestion?: antisense DNA oligo, cleavage of hTR in native RNP, Table II; for ability to direct RNase H cleavage of hTR: native telomerase enzyme
Source text: The regions were identified in two ways. The first way involved contacting samples containing human telomerase with a variety of DNA polynucleotides having sequences complementary to the sequence of hTR under hybridization conditions, contacting the telomerase with RNase H, which cleaves the RNA strand of an RNA-DNA duplex, and determining whether hTR had been cleaved. […] The second way involved oligo-decoration. […] Other accessible areas of hTR can be identified by similar assays using antisense polynucleotides whose sequences are substantially complementary to a nucleotide sequence selected from hTR.
A set of 17 contiguous antisense DNA oligonucleotides (30 mers) were tested for their ability to direct RNase H cleavage of hTR in the context of the native telomerase enzyme. […] Antisense oligonucleotides "14", "16", and "21" (see Table II) were tested as potential inhibitors of human telomerase ("hTase").
The accessible regions were "fine mapped" by using shorter antisense oligonucleotides to direct RNase H cleavage of hTR.

telomerase [2] = test: Capture of active telomerase on streptavidin beads by biotinylated 2'OMe antisense analogs; type: binding, human; settings: for capture of active telomerase on streptavidin beads: biotinylated 2'OMe analogs; for Capture? (2'OMe): biotinylated 2'OMe antisense RNA analog of the oligo, streptavidin beads; for Capture? (2'OMe) / Activity on beads: Table II; for Activity on beads: telomerase activity on beads after capture by 2'OMe analog
Source text: On the bases of the antisense data, biotinylated 2'OMe antisense RNA analogs were designed for affinity purification of telomerase. The goal of the antisense affinity approach was to design ligands that afforded good purification and yield, while keeping the enzyme intact (i.e., active). Several 2'OMe ligands met our criteria (Table II, FIG. 1). […] These analogs were further refined via the synthesis of second generation antisense affinity ligands, which were designed to allow release of active telomerase (reversible ligands). Currently, our affinity scheme consists of two reversible antisense ligands, which are employed in series, and target two different regions of hTR. The first ligand is a disulfide version of 14ab which allows release of telomerase via dithiothreitol treatment. The second ligand contains the 21ab1 antisense sequence and plus a tail of "nonsense" sequence. hTR is released from the antisense ligand by a displacement DNA oligonucleotide, which is complementary to the entire length of the 21ab1 antisense affinity ligand.

[3] = tested on: telomerase ribonucleoprotein; test: Oligodecoration: native gel mobility shift with labeled 2'-O-methyl antisense polynucleotides; type: binding, human; settings: radioactively labeled 2'-O-methyl antisense polynucleotide; altered mobility on native gel
Description: Oligodecoration was used to further identify accessible regions of the telomerase ribonucleoprotein. Radioactively labeled 2 0-methyl antisense polynucleotides were prepared and exposed to the telomerase ribonucleoprotein. The sample was incubated to allow the polynucleotide to bind to telomerase. Then the sample was run on a native gel. […] RP2 has the sequence CGG GCC AGC AGC TGA CA (SEQ ID NO:14).

telomerase [4] = test: Capture of telomerase on an affinity matrix; type: binding, human
[5] = tested on: human telomerase ("hTase"); test: Inhibition of human telomerase, standard primer elongation assay; type: biochemical; settings: preincubation of partially purified nuclear or cytoplasmic extract with oligonucleotide

| Substance | RNaseH Digestion? [1] | ability to direct RNase H cleavage of hTR [1] | Capture? (2'OMe) (telomerase [2]) | also measured |
| --- | --- | --- | --- | --- |
| 5' CATTTTTTGTTTGCTCTAGA 3' (antisense CATTTTTTGTTTGCTCTAGA; chemistry not given here) [20/21, antisense 20 mer] | yes | – | – | – |
| 5' CGT TCC TCT TCC 3' (antisense CGTTCCTCTTCC; biotinylated 2'OMe, further chemistry not given here) [Oligo 14d, antisense 12 mer of the "14" region; biotinylated 2'OMe analog used for capture] | yes | directed RNase H cleavage | yes | capture of active telomerase on streptavidin beads (telomerase [2]): "captured" active telomerase; Activity on beads (telomerase [2]): yes |
| 5' GCT CTA GAA TGA ACG 3' (antisense GCTCTAGAATGAACG; chemistry not given here) [Oligo 21ab3, shorter antisense oligo of the "21" region] | yes | – | – | – |
| 5' CCAACTCTTCGCGGTGGCAG 3' (antisense CCAACTCTTCGCGGTGGCAG; chemistry not given here) [Oligo 16bc, antisense 20 mer of the "16" region] | yes | directed RNase H cleavage | yes | – |
| 5' GCT CTA GAA TGA ACG GTG G 3' (antisense GCTCTAGAATGAACGGTGG; chemistry not given here) [Oligo 21ab, shorter antisense oligo of the "21" region] | yes | – | yes | – |
| 5' CCTGCGGCCTGAAACGGTGA 3' (antisense CCTGCGGCCTGAAACGGTGA; chemistry not given here) [Oligo 14bc, antisense 20 mer of the "14" region] | no | – | – | – |
| CGG GCC AGC AGC TGA CA (antisense CGGGCCAGCAGCTGACA; 2'-O-methyl, further chemistry not given here) [RP2] | – | – | – | binding to the telomerase ribonucleoprotein [3]: found to bind; ability to capture telomerase on an affinity matrix (telomerase [4]): demonstrated an ability to capture telomerase |
| 5' GCT CTA GAA TG 3' (antisense GCTCTAGAATG; chemistry not given here) [Oligo 21ab2, shorter antisense oligo of the "21" region] | yes | – | yes | – |
| 5' CGT TCC TCT TCC TGC G9C CT 3' [Oligo 14ab] | yes | directed RNase H cleavage | yes | capture of active telomerase on streptavidin beads (telomerase [2]): "captured" active telomerase; Activity on beads (telomerase [2]): yes |
| 5' CTGACAGAGCCCAACTCTTCGCGGTGGCAG 3' (antisense CTGACAGAGCCCAACTCTTCGCGGTGGCAG; chemistry not given here) [Oligo 16, antisense DNA 30 mer against hTR nucleotides 290-319] | yes | directed efficient cleavage of hTR | – | inhibition of hTase activity [5]: did not significantly affect hTase activity |
| 5' GCTCTAGAATGAACGGTGGAAGGCGGCAGG 3' (antisense GCTCTAGAATGAACGGTGGAAGGCGGCAGG; chemistry not given here) [Oligo 21, antisense DNA 30 mer directed against nucleotides 137 to 166 of hTR] | yes | directed efficient cleavage of hTR | – | inhibition of hTase activity [5]: potent inhibition of hTase |
| 5' GCT CTA G 3' [Oligo 21ab1] | yes | – | yes | capture of active telomerase on streptavidin beads (telomerase [2]): "captured" active telomerase; Activity on beads (telomerase [2]): yes |
| 5' CGTTCCTCTTCCTGCGGCCTGAAACGGTGA 3' (antisense CGTTCCTCTTCCTGCGGCCTGAAACGGTGA; chemistry not given here) [Oligo 14, antisense DNA 30 mer against hTR nucleotides 350-380] | yes | directed efficient cleavage of hTR | – | inhibition of hTase activity [5]: did not significantly affect hTase activity |
| 5' CTGACAGAGCCCAACTCTTC 3' (antisense CTGACAGAGCCCAACTCTTC; chemistry not given here) [Oligo 16ab, antisense 20 mer of the "16" region] | yes | directed RNase H cleavage | yes | Activity on beads (telomerase [2]): no |

Source: patent publication US5846723A, “Methods for detecting the RNA component of telomerase” (Geron Corporation, priority 1996, dated 1998)
